Assay results taken from ChEMBL document CHEMBL5257019, “An Overview of Severe Acute Respiratory Syndrome-Coronavirus (SARS-CoV) 3CL Protease Inhibitors: Peptidomimetics and Small Molecule Chemotherapy” (J Med Chem, 2016).

Assay: Inhibition of SARS-CoV-2 3CL protease Q189A mutant by FRET assay
Design: species or system Severe acute respiratory syndrome coronavirus 2

Work on O=c1c(O[C@@H]2OC(O)[C@@H](O)[C@H](O)[C@@H]2O)c(-c2ccc(O)c(O)c2)oc2cc(O)cc(O)c12 (stereo partly specified) yielded an IC50 of 24.1 µM.
